Source: paper PMC9562371 (RSC Advances, 2022)

Target: T1, m-OLF (myocilin OLF domain) (Homo sapiens, UniProt Q99972)
T1 sequence (Q99972 244-504): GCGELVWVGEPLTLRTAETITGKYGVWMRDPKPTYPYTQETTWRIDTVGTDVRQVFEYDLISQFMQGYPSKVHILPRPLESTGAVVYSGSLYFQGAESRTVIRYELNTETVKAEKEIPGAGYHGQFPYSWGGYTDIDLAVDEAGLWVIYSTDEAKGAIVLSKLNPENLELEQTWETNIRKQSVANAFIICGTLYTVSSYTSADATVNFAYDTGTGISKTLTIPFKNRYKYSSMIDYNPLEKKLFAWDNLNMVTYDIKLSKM
Assay: surface plasmon resonance
Format: binding

**Q.** For `O=C(O[C@@H]1Cc2c(O)cc(O)cc2O[C@@H]1c1ccc(O)c(O)c1)c1cc(O)c(O)c(O)c1` [ECG], which Kd is on record?
**A.** 19.8 µM
